pIC50: −log10 of the molar value. Counter-ions that a name gives are not always drawn.
Legend:
human factor XIa = molecular target: T1, human factor XIa (Homo sapiens, UniProt P03951); experiment: Measurement of FXIa inhibition (fluorogenic peptide substrate Boc-Glu(OBzl)-Ala-Arg-AMC); assay type: biochemical; settings: factor XIa from Kordia 0.45 nM, 15 min pre-incubation, 30 min at 22° C., fluorescence
T1 construct: purchased Kordia

human and animal plasma = experiment: Determination of anticoagulatory activity: activated partial thromboplastin time (aPTT) in plasma; settings: concentration of test substance which brings about a 1.5-fold extension of the aPTT; plasma in vitro, C.K. Prest kit
Protocol: The anticoagulatory activity of the test substances is determined in vitro in human and animal plasma (for example mouse, rat, rabbit, pig and dog plasma). To this end, blood is drawn off in a mixing ratio of sodium citrate/blood of 1:9 using a 0.11 molar sodium citrate solution as receiver. Immediately after the blood has been drawn off, it is mixed thoroughly and centrifuged at about 4000 g for 15 minutes. The supernatant is pipetted off.
The activated partial thromboplastin time (aPTT) is determined in the presence of varying concentrations of test substance or the corresponding solvent using a commercial test kit (C.K. Prest from Diagnostica Stago). The test compounds are incubated with the plasma and the PTT reagent (cephalin, kaolin) at 37° C. for 3 minutes. Coagulation is then started by addition of a 25 mM aqueous calcium chloride solution, and the time when coagulation occurs is determined. The concentration of test substance which brings about a 1.5-fold extension of the aPTT is determined.

T1 sequence (P03951 388-625 limits assumed): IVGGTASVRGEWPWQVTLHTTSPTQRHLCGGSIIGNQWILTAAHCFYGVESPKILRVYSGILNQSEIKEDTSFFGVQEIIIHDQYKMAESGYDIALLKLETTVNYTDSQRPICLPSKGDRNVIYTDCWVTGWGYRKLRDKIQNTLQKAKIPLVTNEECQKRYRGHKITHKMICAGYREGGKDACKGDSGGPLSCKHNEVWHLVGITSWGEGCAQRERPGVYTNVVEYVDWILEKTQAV
T1 sequence (P03951 19-387 partner limits assumed): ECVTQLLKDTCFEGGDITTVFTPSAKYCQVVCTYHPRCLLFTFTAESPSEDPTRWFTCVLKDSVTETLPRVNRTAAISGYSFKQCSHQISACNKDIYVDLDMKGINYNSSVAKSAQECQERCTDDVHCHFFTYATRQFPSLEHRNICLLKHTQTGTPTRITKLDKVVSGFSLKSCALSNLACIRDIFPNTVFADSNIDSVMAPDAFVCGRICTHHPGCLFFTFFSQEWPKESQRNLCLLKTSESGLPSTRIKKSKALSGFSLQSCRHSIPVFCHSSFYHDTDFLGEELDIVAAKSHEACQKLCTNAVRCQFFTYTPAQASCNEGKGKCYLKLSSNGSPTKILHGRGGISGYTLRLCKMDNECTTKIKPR

SMILES	pIC50 (human factor XIa)	aPTT (human and animal plasma) [µmol/L]
Cc1ccc(S(=O)(=O)N(C)C)cc1-c1cccc(C[C@H](NC(=O)[C@H]2CC[C@H](CN)CC2)C(=O)Nc2ccc3[nH]c(=O)[nH]c3c2)c1 [Example 44, trans-4-(Aminomethyl)-N-{(2S)-3-[5′-(dimethylsulphamoyl)-2′-methylbiphenyl-3-yl]-1-oxo-1-[(2-oxo-2,3-dihydro-1H-benzimidazol-5-yl)amino]propan-2-yl}cyclohexanecarboxamide hydrochloride]	7.89	0.28
CN1CCN(C(=O)c2ccc(-c3cccc(C[C@H](NC(=O)[C@H]4CC[C@H](CN)CC4)C(=O)Nc4ccc(-c5nnn[nH]5)cc4)c3)cc2)CC1 [Example 46, trans-4-(Aminomethyl)-N-[(2S)-3-{4′-[(4-methylpiperazin-1-yl)carbonyl]biphenyl-3-yl}-1-oxo-1-{[4-(1H-tetrazol-5-yl)phenyl]amino}propan-2-yl]cyclohexanecarboxamide hydrochloride]	8.10	0.32
NC[C@H]1CC[C@H](C(=O)N[C@@H](Cc2cccc(-c3cccc(C(=O)N4CCOCC4)c3)c2)C(=O)Nc2ccc(-c3nnn[nH]3)cc2)CC1 [Example 47, trans-4-(Aminomethyl)-N-[(2S)-3-[3′-(morpholin-4-ylcarbonyl)biphenyl-3-yl]-1-oxo-1-{[4-(1H-tetrazol-5-yl)phenyl]amino}propan-2-yl]cyclohexanecarboxamide hydrochloride]	8.28	0.34
NC[C@H]1CC[C@H](C(=O)N[C@@H](Cc2cccc(-c3ccc(C(=O)N4CCN(CCO)CC4)cc3)c2)C(=O)Nc2ccc(-c3nnn[nH]3)cc2)CC1 [Example 48, trans-4-(Aminomethyl)-N-[(2S)-3-(4′-{[4-(2-hydroxyethyl)piperazin-1-yl]carbonyl}biphenyl-3-yl)-1-oxo-1-{[4-(1H-tetrazol-5-yl)phenyl]amino}propan-2-yl]cyclohexanecarboxamide hydrochloride]	8.16	0.44
Cc1ccc(S(=O)(=O)N2CCOCC2)cc1-c1cccc(C[C@H](NC(=O)[C@H]2CC[C@H](CN)CC2)C(=O)Nc2ccc(-c3noc(=O)[nH]3)cc2)c1 [Example 52, trans-4-(Aminomethyl)-N-[(2S)-3-[2′-methyl-5′-(morpholin-4-ylsulphonyl)biphenyl-3-yl]-1-oxo-1-{[4-(5-oxo-4,5-dihydro-1,2,4-oxadiazol-3-yl)phenyl]amino}propan-2-yl]cyclohexanecarboxamide hydrochloride]	8.74	0.06
Cc1cc(S(=O)(=O)NC2CCNCC2)ccc1-c1cccc(C[C@H](NC(=O)[C@H]2CC[C@H](CN)CC2)C(=O)Nc2ccc(-c3nnc(Cl)[nH]3)cc2)c1 [Example 55, trans-4-(Aminomethyl)-N-{(2S)-1-{[4-(3-chloro-4H-1,2,4-triazol-5-yl)phenyl]amino}-3-[2′-methyl-4′-(piperidin-4-ylsulphamoyl)biphenyl-3-yl]-1-oxopropan-2-yl}cyclohexanecarboxamide hydrochloride]	8.37	0.14
Cc1ccc(S(=O)(=O)NCc2ccccc2)cc1-c1cccc(C[C@H](NC(=O)[C@H]2CC[C@H](CN)CC2)C(=O)Nc2ccc(-c3noc(=O)[nH]3)cc2)c1 [Example 60, trans-4-(Aminomethyl)-N-[(2S)-3-[5′-(benzylsulphamoyl)-2′-methylbiphenyl-3-yl]-1-oxo-1-{[4-(5-oxo-4,5-dihydro-1,2,4-oxadiazol-3-yl)phenyl]amino}propan-2-yl]cyclohexanecarboxamide hydrochloride]	8.85	0.21
CNC(=O)c1ccc(F)c(-c2cccc(C[C@H](NC(=O)[C@H]3CC[C@H](CN)CC3)C(=O)Nc3ccc(-c4nnn[nH]4)cc3)c2)c1 [Example 62, 3′-[(2S)-2-({[trans-4-(Aminomethyl)cyclohexyl]carbonyl}amino)-3-oxo-3-{[4-(1H-tetrazol-5-yl)phenyl]amino}propyl]-6-fluoro-N-methylbiphenyl-3-carboxamide hydrochloride]	8.21	0.48

More lines, in order of rising pIC50 (human factor XIa), values ahead:

pIC50 (human factor XIa)	SMILES	aPTT (human and animal plasma) [µmol/L]
7.44	NC[C@H]1CC[C@H](C(=O)N[C@@H](Cc2cccc(-c3ccc(C(=O)NC4CCNCC4)cc3)c2)C(=O)Nc2ccc3cn[nH]c3c2)CC1 [Example 51, 3′-[(2S)-2-({[trans-4-(Aminomethyl)cyclohexyl]carbonyl}amino)-3-(1H-indazol-6-ylamino)-3-oxopropyl]-N-(piperidin-4-yl)biphenyl-4-carboxamide hydrochloride]	0.33
7.68	Cc1ccc(C[C@H](NC(=O)[C@H]2CC[C@H](CN)CC2)C(=O)Nc2ccc(-c3nnn[nH]3)cc2)cc1-c1ccc(C(=O)NC2CCNCC2)cc1 [Example 49, 5′-[(2S)-2-({[trans-4-(Aminomethyl)cyclohexyl]carbonyl}amino)-3-oxo-3-{[4-(1H-tetrazol-5-yl)phenyl]amino}propyl]-2′-methyl-N-(piperidin-4-yl)biphenyl-4-carboxamide hydrochloride]	0.47
7.77	COc1ccc(C[C@H](NC(=O)[C@H]2CC[C@H](CN)CC2)C(=O)Nc2ccc(-c3nn[nH]n3)cc2)cc1-c1ccc(C(=O)N[C@@H]2CCNC2)cc1C [Example 57, 5′-[(2S)-2-({[trans-4-(Aminomethyl)cyclohexyl]carbonyl}amino)-3-oxo-3-{[4-(2H-tetrazol-5-yl)phenyl]amino}propyl]-2′-methoxy-2-methyl-N-[(3R)-pyrrolidin-3-yl]biphenyl-4-carboxamide hydrochloride]	0.3
7.77	COc1ccc(C[C@H](NC(=O)[C@H]2CC[C@H](CN)CC2)C(=O)Nc2ccc(-c3nn[nH]n3)cc2)cc1-c1ccc(C(=O)NCCN)cc1C [Example 58, N-(2-Aminoethyl)-5′-[(2S)-2-({[trans-4-(aminomethyl)cyclohexyl]carbonyl}amino)-3-oxo-3-{[4-(2H-tetrazol-5-yl)phenyl]amino}propyl]-2′-methoxy-2-methylbiphenyl-4-carboxamide hydrochloride]	0.3
7.82	COc1ccc(C[C@H](NC(=O)[C@H]2CC[C@H](CN)CC2)C(=O)Nc2ccc(-c3nn[nH]n3)cc2)cc1-c1ccc(C(=O)NC2CCNCC2)cc1C [Example 56, 5′-[(2S)-2-({[trans-4-(Aminomethyl)cyclohexyl]carbonyl}amino)-3-oxo-3-{[4-(2H-tetrazol-5-yl)phenyl]amino}propyl]-2′-methoxy-2-methyl-N-(piperidin-4-yl)biphenyl-4-carboxamide hydrochloride]	0.28
7.92	NC[C@H]1CC[C@H](C(=O)N[C@@H](Cc2cccc(-c3cccc(C(=O)NCCN4CCCC4)c3)c2)C(=O)Nc2ccc(-c3nnn[nH]3)cc2)CC1 [Example 61, 3′-[(2S)-2-({[trans-4-(Aminomethyl)cyclohexyl]carbonyl}amino)-3-oxo-3-{[4-(1H-tetrazol-5-yl)phenyl]amino}propyl]-N-[2-(pyrrolidin-1-yl)ethyl]biphenyl-3-carboxamide hydrochloride]	0.37
7.96	CCN(CC)CCNC(=O)c1ccc(-c2cccc(C[C@H](NC(=O)[C@H]3CC[C@H](CN)CC3)C(=O)Nc3ccc(-c4nnn[nH]4)cc3)c2)cc1 [Example 42, 3′-[(2S)-2-({[trans-4-(Aminomethyl)cyclohexyl]carbonyl}amino)-3-oxo-3-{[4-(1H-tetrazol-5-yl)phenyl]amino}propyl]-N-[2-(diethylamino)ethyl]biphenyl-4-carboxamide hydrochloride]	0.35
8.14	CN(C)CCCOc1ccc(-c2cccc(C[C@H](NC(=O)[C@H]3CC[C@H](CN)CC3)C(=O)Nc3ccc(-c4nnn[nH]4)cc3)c2)cn1 [Example 59, N-alpha-{[trans-4-(Aminomethyl)cyclohexyl]carbonyl}-3-{6-[3-(dimethylamino)propoxy]pyridin-3-yl}-N-[4-(1H-tetrazol-5-yl)phenyl]-L-phenylalaninamide hydrochloride]	0.19
8.24	CON(C)C(=O)c1ccc(F)c(-c2cccc(C[C@H](NC(=O)[C@H]3CC[C@H](CN)CC3)C(=O)Nc3ccc(-c4nnn[nH]4)cc3)c2)c1 [Example 45, 3′-[(2S)-2-({[trans-4-(Aminomethyl)cyclohexyl]carbonyl}amino)-3-oxo-3-{[4-(1H-tetrazol-5-yl)phenyl]amino}propyl]-6-fluoro-N-methoxy-N-methylbiphenyl-3-carboxamide hydrochloride]	0.3
8.28	CN(C)C(=O)c1cccc(-c2cccc(C[C@H](NC(=O)[C@H]3CC[C@H](CN)CC3)C(=O)Nc3ccc(-c4nnn[nH]4)cc3)c2)c1 [Example 43, 3′-[(2S)-2-({[trans-4-(Aminomethyl)cyclohexyl]carbonyl}amino)-3-oxo-3-{[4-(1H-tetrazol-5-yl)phenyl]amino}propyl]-N,N-dimethylbiphenyl-3-carboxamide hydrochloride]	0.26
8.72	NC[C@H]1CC[C@H](C(=O)N[C@@H](Cc2cccc(-c3ccccc3S(=O)(=O)N3CCOCC3)c2)C(=O)Nc2ccc(-c3nn[nH]n3)cc2)CC1 [Example 54, trans-4-(Aminomethyl)-N-[(2S)-3-[2′-(morpholin-4-ylsulphonyl)biphenyl-3-yl]-1-oxo-1-{[4-(2H-tetrazol-5-yl)phenyl]amino}propan-2-yl]cyclohexanecarboxamide hydrochloride]	0.28
